Laboratory results: PubChem BioAssay (NCI)
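Grown in 96-well plates, cells were treated for 48 hours with each compound at five concentrations. Insufficient inhibition: endpoint recorded as highest concentration tested. TGI: concentration producing complete growth inhibition.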

Legend:
Assay in all cases: DTP human tumour cell line panel, 48 h
[1] = tested on: A549 NSCLC
[2] = tested on: COLO 205 colon
[3] = tested on: SK-MEL-2 melanoma
[4] = tested on: MOLT-4 leukemia
[5] = tested on: MALME-3M melanoma
[6] = tested on: NCI-H522 lung
[7] = tested on: OVCAR-5 ovarian
[8] = tested on: SN12C renal
[9] = tested on: SR leukemia
[10] = tested on: SK-MEL-28 melanoma
[11] = tested on: OVCAR-3 ovarian
[12] = tested on: UACC-257 melanoma
[13] = tested on: MDA-MB-231 breast
[14] = tested on: DU-145 prostate
[15] = tested on: PC-3 prostate
[16] = tested on: K-562 leukemia
[17] = tested on: SF-295 CNS
[18] = tested on: RPMI-8226 leukemia
[19] = tested on: LOX IMVI melanoma
[20] = tested on: 786-0 renal
[21] = tested on: SNB-78 CNS
[22] = tested on: ACHN renal
[23] = tested on: KM20L2 colon
[24] = tested on: TK-10 renal
[25] = tested on: HT29 colon
[26] = tested on: HCT-15 colon
[27] = tested on: T-47D breast
[28] = tested on: NCI-H460 lung
[29] = tested on: SNB-75 CNS
[30] = tested on: DLD-1 colon
[31] = tested on: SK-OV-3 ovarian
[32] = tested on: OVCAR-8 ovarian
[33] = tested on: NCI-H23 lung
[34] = tested on: OVCAR-4 ovarian
[35] = tested on: M14 melanoma
[36] = tested on: NCI-H226 lung
[37] = tested on: SF-268 CNS
[38] = tested on: A498 renal
[39] = tested on: KM12 colon
[40] = tested on: EKVX NSCLC
[41] = tested on: LXFL 529 NSCLC
[42] = tested on: HOP-92 NSCLC
[43] = tested on: SNB-19 CNS
[44] = tested on: SW-620 colon
[45] = tested on: SF-539 CNS
[46] = tested on: HCT-116 colon
[47] = tested on: U251 CNS
[48] = tested on: HCC-2998 colon
[49] = tested on: CCRF-CEM leukemia
[50] = tested on: NCI/ADR-RES ovarian
[51] = tested on: SK-MEL-5 melanoma
[52] = tested on: MDA-N
[53] = tested on: UACC-62 melanoma
[54] = tested on: CAKI-1 renal
[55] = tested on: HL-60(TB) leukemia
[56] = tested on: DMS 114 small cell lung
[57] = tested on: MCF7 breast
[58] = tested on: MDA-MB-435
[59] = tested on: HOP-62 NSCLC
[60] = tested on: BT-549 breast
[61] = tested on: HS 578T breast
[62] = tested on: UO-31 renal
[63] = tested on: IGROV1 ovarian

With `CC1=NN(C(=O)c2ccccc2O)C(=O)/C1=C/c1cccc([N+](=O)[O-])c1` the TGI [1] was greater than 100 µM, the TGI [2] was greater than 100 µM and the TGI [3] was greater than 21.9 µM. For the same compound, the TGI [4] was greater than 100 µM, the TGI [5] was greater than 100 µM and the TGI [6] was 54.6 µM. For the same compound, the TGI [7] was greater than 100 µM, the TGI [8] was 98.7 µM and the TGI [9] was greater than 100 µM. The TGI [10] was greater than 100 µM, the TGI [11] was greater than 47.5 µM and the TGI [12] was greater than 100 µM. It also gave a TGI [13] greater than 100 µM, a TGI [14] greater than 100 µM and a TGI [15] greater than 100 µM. It also gave a TGI [16] greater than 100 µM, a TGI [17] greater than 100 µM and a TGI [18] greater than 100 µM. For the same compound, the TGI [19] was greater than 78.5 µM, the TGI [20] was greater than 100 µM and the TGI [21] was greater than 100 µM. It also gave a TGI [22] greater than 100 µM, a TGI [23] of 63.6 µM and a TGI [24] greater than 100 µM. For the same compound, the TGI [25] was greater than 100 µM, the TGI [26] was greater than 100 µM and the TGI [27] was greater than 100 µM. It also gave a TGI [28] greater than 100 µM, a TGI [29] greater than 100 µM and a TGI [30] greater than 100 µM. For the same compound, the TGI [31] was greater than 100 µM, the TGI [32] was greater than 100 µM and the TGI [33] was greater than 31.8 µM. For the same compound, the TGI [34] was greater than 100 µM, the TGI [35] was greater than 100 µM and the TGI [36] was greater than 100 µM. The TGI [37] was greater than 100 µM, the TGI [38] was 0.801 µM and the TGI [39] was greater than 100 µM. It also gave a TGI [40] greater than 100 µM, a TGI [41] greater than 100 µM and a TGI [42] greater than 100 µM. The TGI [43] was greater than 100 µM, the TGI [44] was greater than 100 µM and the TGI [45] was 5.88 µM. It also gave a TGI [46] greater than 67.7 µM, a TGI [47] greater than 100 µM and a TGI [48] greater than 100 µM. The TGI [49] was greater than 100 µM, the TGI [50] was greater than 100 µM and the TGI [51] was greater than 100 µM. For the same compound, the TGI [52] was greater than 100 µM, the TGI [53] was 27.1 µM and the TGI [54] was greater than 100 µM. For the same compound, the TGI [55] was greater than 62.9 µM, the TGI [56] was 21.4 µM and the TGI [57] was greater than 100 µM. For the same compound, the TGI [58] was greater than 100 µM.
`CN(C)c1ccc(/C=C2\N=C(c3ccccc3)N(c3ccc4c(c3)Sc3cc(N5C(=O)/C(=C/c6ccc(N(C)C)cc6)N=C5c5ccccc5)ccc3N4)C2=O)cc1` showed a TGI [1] of 52.2 µM, a TGI [2] greater than 100 µM and a TGI [3] of 38.3 µM. It also gave a TGI [4] greater than 100 µM, a TGI [7] of 40.8 µM and a TGI [8] of 38.9 µM. For the same compound, the TGI [9] was greater than 100 µM, the TGI [10] was greater than 100 µM and the TGI [11] was 25.8 µM. For the same compound, the TGI [12] was 38.2 µM, the TGI [13] was 41.5 µM and the TGI [59] was 32.1 µM. For the same compound, the TGI [14] was 76.1 µM, the TGI [15] was 34.4 µM and the TGI [16] was 96.4 µM. For the same compound, the TGI [60] was 66.6 µM, the TGI [17] was 36 µM and the TGI [18] was 51.4 µM. For the same compound, the TGI [19] was 40.9 µM, the TGI [20] was 45.6 µM and the TGI [22] was 30.4 µM. The TGI [24] was 31.1 µM, the TGI [25] was greater than 100 µM and the TGI [26] was greater than 100 µM. It also gave a TGI [27] of 48 µM, a TGI [28] of 62.3 µM and a TGI [29] of 27.4 µM. It also gave a TGI [31] of 26.7 µM, a TGI [32] of 34.4 µM and a TGI [34] of 61 µM. For the same compound, the TGI [35] was 40.7 µM, the TGI [37] was 37.3 µM and the TGI [61] was 72.7 µM. For the same compound, the TGI [38] was 31.8 µM, the TGI [39] was greater than 100 µM and the TGI [40] was 74.8 µM. The TGI [42] was 35.1 µM, the TGI [43] was 31.3 µM and the TGI [44] was greater than 100 µM. It also gave a TGI [45] of 32.8 µM, a TGI [46] of 67.6 µM and a TGI [47] of 29 µM. For the same compound, the TGI [48] was 37.9 µM, the TGI [49] was 20.1 µM and the TGI [50] was 89.2 µM. For the same compound, the TGI [51] was 32.1 µM, the TGI [52] was greater than 100 µM and the TGI [53] was 33.7 µM. The TGI [54] was 37.4 µM, the TGI [55] was 61.9 µM and the TGI [57] was 32.4 µM. For the same compound, the TGI [62] was 34.8 µM, the TGI [63] was 32 µM and the TGI [58] was 58 µM.
